The results in this text go back to patent US5661153A, “1-arylpyrimidine derivatives and pharmaceutical use thereof” (Japan Energy Corporation, priority 1994, dated 1997).

For data set [1], the system named is picryl chloride-induced type IV allergy. As to the kind of experiment: Inhibiting effect on a picryl chloride-induced type IV allergy (1-aryluracil derivatives). In kind it is in vivo, male ICR strain mice. To be noted: Mus musculus, po, read-out: Percent Inhibition; for inhibition in vivo at 100 mg/kg: 100 mg/kg orally twice (just after induction and 16 hours after). Here is the method:
(§1) The abdomen of 6-weeks old male ICR strain mice was shaven and 0.1 ml of a 7% picryl chloride solution in acetone was applied to the epithelium of the abdomen for immunization. After one week, 5 μl of a 1% picryl chloride solution in olive oil was applied to both sides of the left auricula to induce an allergy reaction. A given amount of a test substance was suspended in a 0.5% CMC-Na solution and the resulting suspension was administered orally to each mouse twice, i.e., just after the induction and 16 hours after. The thickness of the left auricula was measured both before the induction and 24 hours after.
(§2) The difference between the thickness of the left auricula before the induction and the value measured 24 hours after was calculated as the increase in thickness. Using a reference group to which only a 0.5% CMC-Na solution was administered orally, a reference value for the increase in thickness was obtained. The percent inhibition was determined as 100% when the increase in thickness was zero and as 0% when the increase in thickness was equal to the reference value. On the basis of these criteria, the percent inhibition of each test substance was calculated at varying doses.

The test system of data set [2] is passive cutaneous anaphylaxis (PCA) reaction. As to the kind of experiment: Inhibiting effect on a 48 hour PCA reaction (test method for compound prepared in Example 1). To be noted: dye leakage. In kind it is in vivo, male Wistar strain rats. How it is done: (§3) Eight-weeks old male Wistar strain rats were immunized by subcutaneously injecting 0.05 ml of 50-fold diluted DNP-Ascaris antiserum (titer=1:64) at four positions on the dorsum. Forty-eight hours after the immunization, 1 ml of a 0.5% Evans blue solution containing 1 mg of DNP-Ascaris antigen was administered into a tail vein to induce a PCA reaction. Thirty minutes after the induction, the rats were bled to death and blue circular parts appearing at the immunized positions were excised. The dye was extracted from the blue circular parts with ethyl acetate and the amount of the dye leakage was determined. A test substance was suspended in a 0.5% CMC-Na solution and administered orally to each rat 1 hour before the induction.
(§4) Using a reference group to which only a 0.5% CMC-Na solution was administered orally, a reference value for the amount of dye leakage was obtained. The percent inhibition was determined as 100% when the amount of dye leakage was zero and as 0% when the amount of dye leakage was equal to the reference value. On the basis of these criteria, the percent inhibition of each test substance was calculated at varying doses.

Data set [3] in a line: Toxicity Test (Experimental Example 1, 1-aryluracil derivatives). In kind it is in vivo, male SD rats. To be noted: 1,000 mg/kg orally once a day for 2 consecutive weeks. How it is done:
(§5) A test substance was suspended in a 0.5% CMC-Na solution and administered orally to 6-weeks old male SD rats once a day at a dose of 1,000 mg/kg for 2 consecutive weeks. The weight of each rat was measured both before the administration and every day during the administration. A given amount of blood was collected on the day after the end of the administration period and examined. Collected urine was also examined. In addition, organs were checked for any aberrations by autopsy.

For data set [4], the system named is passive cutaneous anaphylaxis (PCA) reaction. Kind of data set: Inhibiting effect on a 48 hour PCA reaction (test method for compound prepared in Example 22). In kind it is in vivo, male Wistar strain rats. The settings on record: 100 mg/kg orally 30 minutes before the induction; dye leakage. Here is the method: as §3, with “0.1” for “0.05”, “700-fold” for “50-fold”, “(titer=1:1024)” for “(titer=1:64)”, “two” for “four”, “pedal” for “tail”, “at a dose of 100 mg/kg 30 minutes” for “1 hour”
as §4

Data set [5] can be described thus: Toxicity Test (Experimental Example 2, 3-arylpurine derivatives). In kind it is in vivo, male SD rats. The settings on record: 1,000 mg/kg orally once a day for 2 consecutive weeks. Here is the method:
as §5

Data set [6] relates to picryl chloride-induced type IV allergy. As to the kind of experiment: Inhibiting effect on a picryl chloride-induced type IV allergy (3-arylpurine derivatives). In kind it is in vivo, male ICR strain mice. The settings on record: left auricula thickness at 24 hours. How it is done:
as §1, §2

Where [7] appears, read: 10 mg/kg orally twice (just after induction and 16 hours after), left auricula thickness at 24 hours.
Where [8] appears, read: left auricula thickness at 24 hours.
Where [9] appears, read: 10 mg/kg orally twice (just after induction and 16 hours after).
The mark [10] stands for this setting: 100 mg/kg orally twice (just after induction and 16 hours after).

Each structure is given as a SMILES string. Like-named read-outs stand apart in the source and are kept apart here.

With `Cn1c(=O)c(NC(=O)c2cc(C(C)(C)C)c(O)c(C(C)(C)C)c2)c(N)n(-c2ccccc2)c1=O` [Example 1, 6-Amino-5-(3,5-di-tert-butyl-4-hydroxyphenyl)carboxyamido-3-methyl-1-phenyluracil], the inhibition in vivo at 10 mg/kg in data set [1] (setting [7]) stood at 54%. Besides, the “Percent Inhibition” value came out at 33% in data set [2] (3 mg/kg orally 1 hour before the induction) and 49% in data set [2] (30 mg/kg orally 1 hour before the induction).
As to `Cn1c(=O)c(NC(=O)c2cc(C(C)(C)C)c(O)c(C(C)(C)C)c2)c(N)n(-c2ccc(F)cc2)c1=O` [Example 2, 6-Amino-5-(3,5-di-tert-butyl-4-hydroxyphenyl)carboxyamido-1-(4-fluorophenyl)-3-methyluracil], in data set [1] (3 mg/kg orally twice (just after induction and 16 hours after), left auricula thickness at 24 hours), the inhibition in vivo at 3 mg/kg was 38%.
As for `Cc1ccc(-n2c(N)c(NC(=O)c3cc(C(C)(C)C)c(O)c(C(C)(C)C)c3)c(=O)n(C)c2=O)cc1` [Example 3, 6-Amino-5-(3,5-di-tert-butyl-4-hydroxyphenyl)carboxyamido-3-methyl-1-(4-methylphenyl)uracil], the inhibition in vivo at 10 mg/kg in data set [1] (setting [7]) is 33%.
Same read-out and setting: for `COc1ccc(-n2c(N)c(NC(=O)c3cc(C(C)(C)C)c(O)c(C(C)(C)C)c3)c(=O)n(C)c2=O)cc1` [Example 4, 6-Amino-5-(3,5-di-tert-butyl-4-hydroxyphenyl)carboxyamido-1-(4-methoxyphenyl)-3-methyluracil] the value was 35%.
With `CC(=O)Oc1cc(OC(C)=O)cc(C(=O)Nc2c(N)n(-c3ccccc3)c(=O)n(C)c2=O)c1` [Example 7, 6-Amino-5-(3,5-diacetoxyphenyl)carboxyamido-3-methyl-1-phenyluracil], the inhibition in vivo at 10 mg/kg in data set [1] (setting [7]) was 65%. Besides, in data set [3], the autopsy entry is given as “no abnormality was observed”, the blood examination entry is recorded as “no abnormality was observed”, the “death during the administration period” value was “no rat died” and the urine examination result is “no abnormality was observed”. For the same compound, the weight change result in data set [3] is “no abnormality was observed”.
Regarding `CC(=O)Oc1cc(OC(C)=O)cc(C(=O)Nc2c(N)n(-c3ccc(F)cc3)c(=O)n(C)c2=O)c1` [Example 8, 6-Amino-5-(3,5-diacetoxyphenyl)carboxyamido-1-(4-fluorophenyl)-3-methyluracil], in data set [1] (setting [7]), the inhibition in vivo at 10 mg/kg came to 43%.
Turning to `CCCn1c(=O)c(NC(=O)c2cc(OC(C)=O)cc(OC(C)=O)c2)c(N)n(-c2ccccc2)c1=O` [Example 11, 6-Amino-5-(3,5-diacetoxyphenyl)carboxyamido-1-phenyl-3-propyluracil], the inhibition in vivo at 100 mg/kg in data set [1] (setting [8]) was found to be 30%.
On to `Cn1c(=O)c(NC(=O)c2cc(O)cc(O)c2)c(N)n(-c2ccccc2)c1=O` [Example 14, 6-Amino-5-(3,5-dihydroxyphenyl)carboxyamido-3-methyl-1-phenyluracil], for which the inhibition in vivo at 10 mg/kg in data set [1] (setting [7]) was determined as 45%.
For `CC(=O)Oc1cc(C(=O)Nc2c(N)n(-c3ccccc3)c(=O)n(C)c2=O)cc(OC(C)=O)c1OC(C)=O` [Example 22, 6-Amino-3-methyl-1-phenyl-5-(3,4,5-triacetoxyphenyl)carboxyamidouracil], in data set [1] (setting [7]), the inhibition in vivo at 10 mg/kg stood at 48%. The inhibition in vivo at 100 mg/kg in data set [1] (setting [8]) was found to be 72%. In addition, the “Percent Inhibition” value in data set [4] is listed as 50%.
Turning to `CC(=O)Oc1ccc(C(=O)Nc2c(N)n(-c3ccccc3)c(=O)n(C)c2=O)cc1OC(C)=O` [Example 34, 6-Amino-5-(3,4-diacetoxyphenyl)carboxyamido-3-methyl-1-phenyluracil], the inhibition in vivo at 10 mg/kg in data set [1] (setting [7]) was 33%. Moreover, the inhibition in vivo at 100 mg/kg in data set [1] (setting [8]) was determined as 52%.
Turning to `Cn1c(=O)c(NC(=O)c2cc(=O)cco2)c(N)n(-c2ccccc2)c1=O` [Example 51, 6-Amino-3-methyl-5-(4-oxo-4H-pyran-2-yl)carboxyamido-1-phenyluracil], the inhibition in vivo at 10 mg/kg in data set [1] (setting [7]) worked out at 45%.
With `Cn1c(=O)c(NC(=O)c2ccc(=O)oc2)c(N)n(-c2ccccc2)c1=O` [Example 52, 6-Amino-3-methyl-5-(2-oxo-2H-pyran-5-yl)carboxyamido-1-phenyluracil], in data set [1] (setting [7]), the inhibition in vivo at 10 mg/kg was 19%. For the same compound, the inhibition in vivo at 100 mg/kg in data set [1] (setting [8]) worked out at 39%.
On to `COc1ccc(O)c(C(=O)Nc2c(N)n(-c3ccccc3)c(=O)n(C)c2=O)c1` [Example 53, 6-Amino-5-(2-hydroxy-5-methoxyphenyl)carboxyamido-3-methyl-1-phenyluracil], for which the inhibition in vivo at 10 mg/kg in data set [1] (setting [7]) is 45%. In data set [3], the autopsy result was “no abnormality was observed”, the blood examination entry is listed as “no abnormality was observed”, the “death during the administration period” value is given as “no rat died” and the urine examination entry is “no abnormality was observed”. The weight change result in data set [3] is on record as “no abnormality was observed”.
Consider `COc1ccc(-n2c(N)c(NC(=O)c3cc(OC)ccc3OC(C)=O)c(=O)n(C)c2=O)cc1` [Example 55, 5-(2-Acetoxy-5-methoxyphenyl)carboxyamido-6-amino-1-(4-methoxyphenyl)-3-methyluracil], for which the inhibition in vivo at 100 mg/kg in data set [1] (setting [8]) stood at 35%.
Regarding `CC1CCC(C(=O)Nc2c(N)n(-c3ccccc3)c(=O)n(C)c2=O)CC1` (stereo not drawn) [Example 60, 6-Amino-3-methyl-5-(4-methylcyclohexyl)carboxyamido-1-phenyluracil], in data set [1] (setting [7]), the inhibition in vivo at 10 mg/kg came to 40%.
For `Cn1c(=O)c(NC(=O)C2(C)CCCCC2)c(N)n(-c2ccccc2)c1=O` [Example 61, 6-Amino-3-methyl-5-(1-methylcyclohexyl)carboxyamido-1-phenyluracil], in data set [1] (setting [8]), the inhibition in vivo at 100 mg/kg came to 32%.
Regarding `Cn1c(=O)c2[nH]c(-c3cc(C(C)(C)C)c(O)c(C(C)(C)C)c3)nc2n(-c2ccccc2)c1=O` [Example 74, 8-(3,5-Di-tert-butyl-4-hydroxyphenyl)-1-methyl-3-phenylpurine-2,6-dione], in data set [5], the autopsy entry is “no abnormality was observed”, the blood examination result was “no abnormality was observed”, the “death during the administration period” value is “no rat died” and the urine examination result is recorded as “no abnormality was observed”. In data set [5], the weight change entry was “no abnormality was observed”. Also, in data set [6] (setting [9]), the “Percent Inhibition” value turned out to be 38%.
For the compound `COc1ccc(-n2c(=O)n(C)c(=O)c3[nH]c(-c4cc(C(C)(C)C)c(O)c(C(C)(C)C)c4)nc32)cc1` [Example 75, 8-(3,5-Di-tert-butyl-4-hydroxyphenyl)-3-(4-methoxyphenyl)-1-methylpurine-2,6-dione], the “Percent Inhibition” value in data set [6] (setting [9]) stood at 16%; in data set [6] (setting [10]), 34%.
Regarding `Cn1c(=O)c2[nH]c(-c3ccc(O)c(O)c3)nc2n(-c2ccccc2)c1=O` [Example 78, 8-(3,4-Dihydroxyphenyl)-1-methyl-3-phenylpurine-2,6-dione], the “Percent Inhibition” value in data set [6] (setting [9]) is 35%.
On to `CC(=O)Oc1cc(-c2nc3c([nH]2)c(=O)n(C)c(=O)n3-c2ccccc2)cc(OC(C)=O)c1OC(C)=O` [Example 80, 1-Methyl-3-phenyl-8-(3,4,5-triacetoxyphenyl)purine-2,6-dione], for which the “Percent Inhibition” value in data set [6] (setting [9]) was found to be 37%; in data set [6] (setting [10]), 53%.
For the compound `C[C@]12C=CC(=O)C=C1CC[C@@H]1[C@@H]2[C@@H](O)C[C@@]2(C)[C@H]1CC[C@]2(O)C(=O)CO` [Prednisolone, prednisolone, reference compound], in data set [1] (24 h), the inhibition in vivo at 10 mg/kg turned out to be 77%. Further, the “Percent Inhibition” value in data set [6] (setting [9]) was determined as 67%.
